Assay results taken from patent US5099063A, “Certain phosphinic acid derivatives having antibacterial activity” (Merck & Co., Inc., priority 1990, dated 1992).

Biological target: T1, dehydropeptidase-I (renal dipeptidase, EC 3.4.13.11) (Sus scrofa, UniProt P22412)
T1 construct: a solubilized preparation of dipeptidase isolated from hog kidneys; from tissue; host or cells: hog kidney
T1 sequence (P22412 17-409): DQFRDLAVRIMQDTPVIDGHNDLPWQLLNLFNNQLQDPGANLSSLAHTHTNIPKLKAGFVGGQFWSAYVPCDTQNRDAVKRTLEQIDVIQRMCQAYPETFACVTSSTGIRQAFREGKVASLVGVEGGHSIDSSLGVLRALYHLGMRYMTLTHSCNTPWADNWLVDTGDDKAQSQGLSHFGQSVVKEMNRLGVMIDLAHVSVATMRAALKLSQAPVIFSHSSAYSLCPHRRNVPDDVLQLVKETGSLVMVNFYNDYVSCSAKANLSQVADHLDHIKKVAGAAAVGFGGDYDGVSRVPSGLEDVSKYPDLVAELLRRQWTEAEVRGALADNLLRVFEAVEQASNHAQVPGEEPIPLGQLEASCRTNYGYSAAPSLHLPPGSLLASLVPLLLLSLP
Experiment: Renal dehydropeptidase I inhibition (hydrolysis of glycyldehydrophenylalanine)
Type: biochemical
Conditions: hog kidney dipeptidase, GDP 0.05 mM, MOPS pH 7.1, 37° C.; Ki stated as concentration which achieves 50% inhibition
Procedure: This measured the ability of compounds to inhibit hydrolysis of glycyldehydrophenylalanine (GDP) by a solubilized preparation of dipeptidase isolated from hog kidneys. The procedure is as follows: to a 1 ml system containing 50 mM "MOPS" (3-(N-morpholino)propanesulfonic acid) buffer, pH 7.1, is added 5 μg of lyophilized enzyme, and the test compound at a final concentration of 0.1 mM. After a five minute incubation at 37° C., GDP is added to a final concentration of 0.05 mM. […] Inhibition of the enzyme is gauged by comparison to a standard run containing no inhibitor and is expressed as the inhibitor binding constant, Ki.

| Ki [µM] | Structure (SMILES) |
| --- | --- |
| 0.004 | CCCCC(CP(=O)(O)C(C)N)C(=O)O (racemic) [DL; R2=n-butyl] |

Biological target: T2, D-Alanyl-D-Alanine ligase (Enterococcus hirae, UniProt Q47827)
T2 sequence (Q47827 1-358): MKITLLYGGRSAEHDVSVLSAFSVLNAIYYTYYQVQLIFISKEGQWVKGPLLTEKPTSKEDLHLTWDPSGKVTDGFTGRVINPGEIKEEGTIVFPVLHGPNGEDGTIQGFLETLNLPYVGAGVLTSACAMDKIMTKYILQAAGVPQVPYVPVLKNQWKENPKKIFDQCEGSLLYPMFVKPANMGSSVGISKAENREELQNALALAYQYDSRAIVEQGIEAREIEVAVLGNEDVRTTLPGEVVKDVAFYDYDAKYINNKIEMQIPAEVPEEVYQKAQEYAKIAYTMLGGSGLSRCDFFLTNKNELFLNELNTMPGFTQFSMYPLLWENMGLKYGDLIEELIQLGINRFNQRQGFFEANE
Experiment: D-Alanyl-D-Alanine ligase in vitro inhibition
Type: biochemical
Conditions: inhibitor pre-incubated with enzyme 40 minutes at room temperature, then 37° C. for 30 minutes; 0.005M (14C-1)-D-alanine; read-out: D-AlaAla Ligase Inhibition IC50
Procedure: The ligase enzyme inhibitory activity of compounds of Formula I have been evaluated in vitro with only minor modifications of the procedures of F. C. Neuhaus (Biochemistry 3, 471-480 (1964) and references cited therein) using D-cycloserine as a control and standard ligase inhibitor. The procedure is as follows:
Streptococcus faecalis (ATCC 8043) was grown as described by Neuhaus (J. Biol. Chem., 237:778, 1962). Cell-free extracts were prepared by sonication followed by centrifugation at 27,000×g for 30 minutes. Protein was precipitated with 55% ammonium sulfate. The precipitate was dissolved in 0.05M Tris-Cl buffer (PH 7.0), dialyzed against 0.0025M glutathione and stored in liquid nitrogen. No loss of activity was observed after 1 year.
The assay mixture contained 0.05M Tris-Cl buffer (pH 7.9), 0.01M KCl, 0.008M MgCl2, 0.005M ATP, 0.005M (14C-1)-D-alanine and 5 μof enzyme (specific activity=0.38 units/mg protein). Assay volume was 0.1 ml.
Inhibitors were pre-incubated with enzyme, MgCl2, KCl and buffer, for 40 minutes at room temperature, before addition of ATP and substrate. Samples were subsequently incubated at 37° C. for 30 minutes.
Twenty μl of each sample was applied to the preabsorbent layer of high resolution, pre-channeled silica-gel TLC plates to stop the reaction. Plates were developed in ethanol:ammonium hydroxide: H2 O (11:1:8) for 2-3 hours and the radioactive zones located and integrated with a Berthold Linear Analyzer. […] IC50 's were determined for active compounds (70% inhibition).

| Structure (SMILES) | IC50 [µM] |
| --- | --- |
| CCCCCC=C(CP(=O)(O)C(C)N)C(=O)O (racemic) [DL; R5=n-pentyl, (E,Z isomers), 1-Aminoethyl-(2-carboxy-oct-2-enyl)phosphinic acid (E/Z mixture)] | 700 |
| C=C(CP(=O)(O)[C@@H](C)N)C(=O)O [D; R5=H] | 210 |
| CC(N)P(=O)(O)CC(CCCc1ccccc1)C(=O)O (stereo not drawn) [DL; R2=phenylpropyl; R3=H, 1-Aminoethyl-[2-carboxy-5-phenyl-1-n-pentyl]-phosphinic acid] | 20 |
| CC(N)P(=O)(O)C/C(=C/Cc1ccccc1)C(=O)O (racemic) [DL; R5=benzyl (E isomers)] | 210 |
| CCC(CP(=O)(O)[C@@H](C)N)C(=O)O (stereo partly drawn) [D; R2=ethyl; R3=H, 1-D-Aminoethyl-(2l-carboxy-1-n-butyl)phosphinic acid] | 45 |
| COC(=O)C(C)CP(=O)(O)C(C)N (stereo not drawn) [DL; R2=methyl; R3=methyl, 1-Aminoethyl-(2-carbomethoxy-1-propyl)phosphinic acid] | 60 |
| CCCCCCCC(CP(=O)(O)[C@@H](C)N)C(=O)O (stereo partly drawn) [D; R2=n-heptyl; R3=H, 1-D-Aminoethyl-[2-carboxy-1-nonyl]-phosphinic acid] | 4 |
